{"source": "patent US11453689B2", "about": "“3-pyrrolidine-indole derivatives as serotonergic psychedelic agents for the treatment of CNS disorders” (Mindset Pharma Inc., priority 2020, dated 2022)", "key": {"[1]": {"target": "human 5-HT2A (h5-HT2A) receptor (Homo sapiens (Human), UniProt P28223)", "assay": "FLIPR calcium assay, human 5-HT2A receptor, agonist mode", "assay_type": "cell-based", "procedure": "I. Assessment of the Activated Effect of Exemplary Compounds of Formula I Targeting on Human 5-HT2A (h5-HT2A) Receptor Under Agonist Mode:\n1. Culture the cells in cell culture medium (DMEM containing 10% FBS, 1× penicillin-streptomycin 300 μg/ml G418 and 100 μg/ml hygromycin B) at 37° C., 5% (v/v) CO2.\n2. One day before the assays, detach the cell using TrypLE™ Express and count cells using cell counter.\n3. Seed 20000 cells/well in 30 μl/well culture medium to a 384-well cell plate and incubate the cells overnight at 37° C., 5% (v/v) CO2.\n4. On the assay day, prepare 2×dye solution following the manual of the FLIPR® Calcium 6 Assay Kit: i. Dilute the dye with assay buffer(20 mM HEPES in 1× HBSS, PH7.4); ii. Add probenecid to the final concentration of 5 mM; iii. Vortex vigorously for 1-2 minutes.\n5. Medium from cell plate by flicking the cell plate on towel papers.\n6. Add 10 μl of assay buffer and 10 μl of 2×dye solution to each well of the cell plate.\n7. Put the cell plate on plate shaker, agitate the plate at 600 rpm for 2 minutes. Incubate the plate at 37° C. for 2 hours followed by additional 15-minute incubation at 25° C.\n8. Prepare 3×compound in assay buffer: a. Dilute reference compounds to required concentration with DMSO. Add the compounds to a 384-well compound plate; b. Perform serial dilutions; c. Add 10 mM test compounds to the compound plate, perform 3-fold serial dilutions. d. […] Add 20 μl/well assay buffer to the compound plate; f. Mix the plate on plate shaker for 2 mins;\ni. The normalized fluorescence reading (RFU) is calculated as shown follow, while Fmax and Fmin stand for maximum and minimum of calcium signal during defined time window: RFU=Fmax−Fmin\nii. Calculate the percentage activation by using following equation: […]\niii. Calculate EC50 by fitting % activation against log of compound concentrations with Hill equation using XLfit."}, "human 5-HT2A receptor": {"target": "human 5-HT2A receptor (Homo sapiens (Human), UniProt P28223)", "assay": "Radioligand ([3H]-ketanserin) binding assay on human 5-HT2A receptor", "procedure": "i. Prepare the assay buffer following the table below;\nii. Preparation of 8 doses of reference and exemplary test compounds starting from 10 mM stock solution as requested by 5-fold serial dilutions with 100%;\niii. […] a. Add 50 μl/well of 0.5% (v/v) PEI to UniFilter-96 GF/B plates. Seal the plates and incubate at 4° C. for 3 hrs; b. After incubation, wash the plates 3 times with ice-cold wash buffer (50 mM Tris, pH7.4);\niv. Preparation of assay plates: a. Dilute cell membrane with assay buffer and add 330 μl/well to 96 round deep well plates to reach a concentration of 20 μg/well; b. Prepare 8 concentrations of reference or exemplary test compounds and add 110 μl/well to 96 round deep well plates; c. Dilute [3H]-ketanserin with assay buffer to 5 nM (5× final concentration) and add 110 μl/well to 96 round deep well plates.\nv. Centrifuge the plate at 1000 rpm for 30 secs and then agitate at 600 rpm, R.T. for 5 min.\nvi. Seal the plates and incubate the plate at 27° C. for 90 min.\nvii. Stop the incubation by vacuum filtration onto GF/B filter plates followed by 4 times washing with ice-cold wash buffer (50 mM Tris, pH7.4).\nix. Seal the filter plates and add 40 μl/well of scintillation cocktail.\nx. Read the plate by using a Microbeta2 microplate counter.\nFor reference and exemplary test compounds, the results are expressed as % Inhibition, using the normalization equation: N=100−100×(U−C2)/(C1−C2), where U is the unknown value, C1 is the average of high controls, and C2 is the average of low controls. The IC50 is determined by fitting percentage of inhibition as a function of compound concentrations with Hill equation using XLfit."}, "[2]": {"assay": "Mouse liver microsomes stability with NADPH", "procedure": "(§1) The objective of this study was to estimate in vitro metabolic stability of exemplary compounds in pooled human, male rat and male mouse liver microsomes. The concentrations of exemplary compounds in reaction systems were evaluated by LC-MS/MS for estimating the stability in pooled human, male rat and male mouse liver microsomes. The in vitro intrinsic clearances of test compounds were determined as well.\n(§2) A master solution in the “Incubation Plate” containing phosphate buffer, ultra-pure H2O, MgCl2 solution and liver microsomes was made according to Table 3. The mixture was pre-warmed at 37° C. water bath for 5 minutes.\n(§3) 40 μL of 10 mM NADPH solution was added to each well. The final concentration of NADPH was 1 mM. The negative control samples were prepared by replacing NADPH with 40 μL of ultra-pure H2O. Samples were prepared in duplicate. Negative controls were prepared in singlet.\n(§4) The reaction was started with the addition of 4 μL of 200 μM exemplary test compounds or control compounds to each master solution to get the final concentration of 2 μM. This study was performed in duplicate.\n(§5) Aliquots of 50 μL were taken from the reaction solution at 0, 15, 30, 45 and 60 minutes. The reaction solutions were stopped by the addition of 4 volumes of cold methanol with IS (100 nM alprazolam, 200 nM imipramine, 200 nM labetalol and 2 μM ketoprofen). Samples were centrifuged at 3,220 g for 40 minutes. Aliquot of 90 μL of the supernatant was mixed with 90 μL of ultra-pure H2O and then was used for LC-MS/MS analysis.\n(§6) LC/MS analysis was performed for all samples from this study using a Shimadzu liquid chromatograph separation system equipped with degasser DGU-20A5R; solvent delivery unit LC-30AD; system controller SIL-30AC; column oven CTO-30A; CTC Analytics HTC PAL System. Mass spectrometric analysis was performed using an Triple Quad™ 5500 instrument.\n(§7) All calculations were carried out using Microsoft Excel. Peak areas were determined from extracted ion chromatograms. The slope value, k, was determined by linear regression of the natural logarithm of the remaining percentage of the parent drug vs. incubation time curve.\n(§8) Conversion of the in vitro t1/2 (min) into the in vitro intrinsic clearance (in vitro CLint, in μL/min/mg proteins) was done using the following equation (mean of duplicate determinations): […]"}, "[3]": {"assay": "Human liver microsomes stability with NADPH", "procedure": "as §1, §2, §3, §4, §5, §6, §7, §8"}, "[4]": {"assay": "Rat liver microsomes stability with NADPH", "procedure": "as §1, §2, §3, §4, §5, §6, §7, §8"}, "[5]": {"system": "head-twitch response (HTR) in male C57BL6 mice", "assay": "Mouse head-twitch response (HTR)", "assay_type": "in vivo", "conditions": "M100907 0.5 mg/kg IP before I-2 10 mg/kg SC", "procedure": "Male, C57BL/6J mice (body weight range 20-30 g) were dosed with the appropriate dose of test article, and following a 1-minute pre-treatment time, placed in individual observation chambers. Animals were visually assessed for the incidence head twitches continuously over a 1 hr period. Head twitches were defined as a rapid jerk of the head which was not elicited by an external tactile stimulus (Come and Pickering, Psychopharmacologia, 1967, 11(1): 65-78). Each head twitch was individually counted by a trained observer, and the data expressed as the mean±SEM of 6-10 mice per group. Mice were used in a single experiment only.\nThe effect of various doses of exemplary compound of Formula I, I-2, on head-twitch response (HTR) in male C57BL6 mice were measured. The mice were treated with compound I-2 (0.03-10 mg/kg, SC) by SC route (N=6 mice/dose), and the total number of head twitches were recorded over a 1h period. Data is expressed as mean±SEM. The induction of head twitches elicited by 5-HT2A receptor agonists is believed to represent a behavioural proxy of their psychedelic effects.\nTo evaluate the involvement of 5-HT2A receptor on the HTR induced by exemplary compounds of Formula I, mice were pretreated with the selective 5-HT2AR antagonist M100907 (also known as volinanserin) prior to the administration of exemplary compounds of Formula I, for example, 1-2 (10 mg/kg SC)."}, "[6]": {"conditions": "tobacco use disorder, cited from earlier work"}}, "note": "Read-outs that look alike come from different tables or passages of the source."}
{"smiles": "[2H]C([2H])(c1c[nH]c2cccc(O)c12)[C@H]1CCCN1", "note": "[Compound I-50, (R)-3-(pyrrolidin-2-ylmethyl-d2)-1H-indol-4-ol]", "values": [{"measurement": "EC50", "setting": "[1]", "value": "< 1000", "unit": "nM"}, {"measurement": "IC50", "setting": "human 5-HT2A receptor", "value": "500 to 5000", "unit": "nM"}, {"measurement": "half-life at 2 μM", "setting": "[2]; male, mouse, microsomes", "value": 1.24, "unit": "h"}, {"measurement": "microsomal CLint at 2 μM", "setting": "[2]; male, mouse, microsomes", "value": 18.6, "unit": "µL/min/mg"}, {"measurement": "Remaining Percentage (%) after 60 min, Mouse", "setting": "[2]; mouse liver microsomes, with NADPH, 2 μM", "value": 57.27, "unit": "%"}, {"measurement": "Remaining Percentage (%) after 60 min, Human", "setting": "[3]; human liver microsomes, with NADPH, 2 μM", "value": 69.29, "unit": "%"}, {"measurement": "half-life at 2 μM", "setting": "[3]; human, microsomes", "value": 1.89, "unit": "h"}, {"measurement": "microsomal CLint at 2 μM", "setting": "[3]; human, microsomes", "value": 12.2, "unit": "µL/min/mg"}, {"measurement": "half-life at 2 μM", "setting": "[4]; male, rat, microsomes", "value": 0.662, "unit": "h"}, {"measurement": "microsomal CLint at 2 μM", "setting": "[4]; male, rat, microsomes", "value": 34.9, "unit": "µL/min/mg"}, {"measurement": "Remaining Percentage (%) after 60 min, Rat", "setting": "[4]; rat liver microsomes, with NADPH, 2 μM", "value": 34.11, "unit": "%"}]}
{"smiles": "COc1cccc([C@H](O)C2CCN(CCc3ccc(F)cc3)CC2)c1OC", "note": "[Compound M100907, reference compound]", "values": [{"measurement": "effect of I-2 on HTR after pretreatment with 5-HT2A antagonist M100907", "setting": "[5]", "value": "completely blocked"}]}
{"smiles": "CN(C)CCc1c[nH]c2cccc(OP(=O)(O)O)c12", "note": "[psilocybin, 4-phosphoryloxy-N,N-dimethyltrypatmine]", "values": [{"measurement": "abstinence rate", "setting": "[6]; 12 months follow-up", "value": 67, "unit": "%"}, {"measurement": "abstinence rate", "setting": "[6]; six months follow-up", "value": 80, "unit": "%"}]}
